Source: patent US8993602B2, “Benzoic acid salt of otamixaban” (Sanofi, priority 2011, dated 2015)
Where two headings read alike, the source gives them in different places.

Key:
[1] = for hygroscopicity (absorption or adsorption of water molecules from the surrounding environment): result in words
Method: Moreover, crystalline benzoic acid salt of Formula I may also be characterized by its dynamic vapor sorption (DVS) water vapor sorption and desorption isotherms measured at 25° C. Before starting the sorption cycle the crystalline salt of Formula I sample is treated with dry nitrogen gas.
Moisture sorption/desorption isotherms were recorded on a DVS-1000 from Surface Measurement Systems. […] Typical total measurement times for both cycles were about 20 to 30 hours.

factor Xa = target: T1, factor Xa (Homo sapiens, UniProt P00742); conditions: patients with stable coronary artery disease on usual comedication, some with mild renal impairment; cited from earlier work
T1 construct: from tissue; host or cells: blood of patients (in vivo; result quoted from Hinder et al. 2006)

[2] = test system: prothrombin fragments 1+2; conditions: highest dose regimen, versus unfractionated heparin; cited from earlier work
models of thrombosis = conditions: rodent, canine and porcine models; cited from earlier work
[3] = target: factor Xa assembled in the prothrombinase complex (Factor Xa, Factor Va, calcium and phospholipid) (Homo sapiens, UniProt P00742); conditions: cited from earlier work
free factor Xa = free factor Xa (Homo sapiens, UniProt P00742); conditions: cited from earlier work
acute coronary syndrome = conditions: humans, recent clinical findings; cited from earlier work

Sequence of free factor Xa (P00742 235-488 limits assumed): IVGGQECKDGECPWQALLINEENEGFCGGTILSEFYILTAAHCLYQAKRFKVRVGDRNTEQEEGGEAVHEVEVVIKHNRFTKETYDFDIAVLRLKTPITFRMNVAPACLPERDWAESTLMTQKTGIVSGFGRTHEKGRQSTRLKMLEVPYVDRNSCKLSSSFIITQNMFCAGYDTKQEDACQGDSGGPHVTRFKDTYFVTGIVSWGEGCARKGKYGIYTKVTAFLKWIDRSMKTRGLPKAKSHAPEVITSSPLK
Sequence of free factor Xa (P00742 41-179 partner limits assumed): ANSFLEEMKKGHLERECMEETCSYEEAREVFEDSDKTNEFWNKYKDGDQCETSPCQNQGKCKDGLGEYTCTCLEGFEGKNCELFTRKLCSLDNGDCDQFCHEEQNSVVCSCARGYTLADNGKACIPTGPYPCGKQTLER
Sequence of factor Xa assembled in the prothrombinase complex (Factor Xa, Factor Va, calcium and phospholipid) (P00742 235-488 limits assumed): as the sequence (P00742 235-488 limits assumed) above
Sequence of factor Xa assembled in the prothrombinase complex (Factor Xa, Factor Va, calcium and phospholipid) (P00742 41-179 partner limits assumed): as the sequence (P00742 41-179 partner limits assumed) above
Sequence of factor Xa assembled in the prothrombinase complex (Factor Xa, Factor Va, calcium and phospholipid) (P12259 29-737 partner limits assumed): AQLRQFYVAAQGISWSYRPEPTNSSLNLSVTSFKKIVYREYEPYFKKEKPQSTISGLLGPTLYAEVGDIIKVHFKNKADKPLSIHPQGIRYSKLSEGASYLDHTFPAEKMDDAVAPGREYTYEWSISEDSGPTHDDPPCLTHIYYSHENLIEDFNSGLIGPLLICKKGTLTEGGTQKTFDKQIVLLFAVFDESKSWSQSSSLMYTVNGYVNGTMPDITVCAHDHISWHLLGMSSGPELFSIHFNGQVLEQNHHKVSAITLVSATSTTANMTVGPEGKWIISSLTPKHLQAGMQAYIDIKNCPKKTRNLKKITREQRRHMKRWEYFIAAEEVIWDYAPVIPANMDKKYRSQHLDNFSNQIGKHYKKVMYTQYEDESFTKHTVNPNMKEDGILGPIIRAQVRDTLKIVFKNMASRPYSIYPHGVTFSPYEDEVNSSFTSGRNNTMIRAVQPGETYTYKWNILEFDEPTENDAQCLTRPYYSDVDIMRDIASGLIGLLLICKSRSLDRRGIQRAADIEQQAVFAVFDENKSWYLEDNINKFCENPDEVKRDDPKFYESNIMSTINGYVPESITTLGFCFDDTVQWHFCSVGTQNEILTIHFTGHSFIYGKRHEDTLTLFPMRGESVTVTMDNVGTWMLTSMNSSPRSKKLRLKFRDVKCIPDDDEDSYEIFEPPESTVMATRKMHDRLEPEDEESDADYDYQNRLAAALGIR
Sequence of factor Xa assembled in the prothrombinase complex (Factor Xa, Factor Va, calcium and phospholipid) (P12259 1574-2224 partner limits assumed): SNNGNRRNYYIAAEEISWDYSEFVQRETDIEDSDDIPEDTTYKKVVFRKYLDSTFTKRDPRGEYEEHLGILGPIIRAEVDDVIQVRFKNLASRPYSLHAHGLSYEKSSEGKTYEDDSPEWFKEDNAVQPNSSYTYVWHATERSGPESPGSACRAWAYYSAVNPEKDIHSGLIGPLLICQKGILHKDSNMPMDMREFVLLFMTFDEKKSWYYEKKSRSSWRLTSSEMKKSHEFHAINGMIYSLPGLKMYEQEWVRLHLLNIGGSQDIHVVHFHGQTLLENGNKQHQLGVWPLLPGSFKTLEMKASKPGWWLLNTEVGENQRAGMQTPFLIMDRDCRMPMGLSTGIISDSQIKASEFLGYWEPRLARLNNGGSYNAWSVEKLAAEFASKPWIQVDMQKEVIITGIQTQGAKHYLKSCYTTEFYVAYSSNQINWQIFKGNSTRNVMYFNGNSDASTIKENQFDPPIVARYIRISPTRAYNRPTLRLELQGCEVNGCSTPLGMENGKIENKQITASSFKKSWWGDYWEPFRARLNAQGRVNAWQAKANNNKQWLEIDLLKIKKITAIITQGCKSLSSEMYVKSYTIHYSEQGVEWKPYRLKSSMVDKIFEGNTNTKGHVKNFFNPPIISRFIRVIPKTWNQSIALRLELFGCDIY
T1 sequence (P00742 235-488 limits assumed): as the sequence (P00742 235-488 limits assumed) above
T1 sequence (P00742 41-179 partner limits assumed): as the sequence (P00742 41-179 partner limits assumed) above

COC(=O)[C@H](Cc1cccc(C(=N)N)c1)[C@@H](C)NC(=O)c1ccc(-c2cc[n+]([O-])cc2)cc1.O=C(O)c1ccccc1 [benzoic acid salt of methyl(2R,3R)-2-{3-[amino(imino)methyl]benzyl}-3-{[4-(1-oxidopyridin-4-yl)benzoyl]amino}butanoate]
Change In Mass (%) Desorption ([1]; Cycle 1, Target RH 0.0%): −0.035% | Change In Mass (%) Sorption ([1]; Cycle 1, Target RH 0.0%): 0.000% | Change In Mass (%) Desorption ([1]; Cycle 1, Target RH 10.0%): 0.215% | Change In Mass (%) Hysteresis ([1]; Cycle 1, Target RH 10.0%): 0.119% | Change In Mass (%) Sorption ([1]; Cycle 1, Target RH 10.0%): 0.096% | Change In Mass (%) Desorption ([1]; Cycle 1, Target RH 20.0%): 0.326% | Change In Mass (%) Hysteresis ([1]; Cycle 1, Target RH 20.0%): 0.146% | Change In Mass (%) Sorption ([1]; Cycle 1, Target RH 20.0%): 0.180% | Change In Mass (%) Desorption ([1]; Cycle 1, Target RH 40.0%): 0.534% | Change In Mass (%) Hysteresis ([1]; Cycle 1, Target RH 40.0%): 0.172% | Change In Mass (%) Sorption ([1]; Cycle 1, Target RH 40.0%): 0.363% | Change In Mass (%) Desorption ([1]; Cycle 1, Target RH 60.0%): 0.810% | Change In Mass (%) Hysteresis ([1]; Cycle 1, Target RH 60.0%): 0.214% | Change In Mass (%) Sorption ([1]; Cycle 1, Target RH 60.0%): 0.596% | Change In Mass (%) Desorption ([1]; Cycle 1, Target RH 80.0%): 1.300% | Change In Mass (%) Hysteresis ([1]; Cycle 1, Target RH 80.0%): 0.374% | Change In Mass (%) Sorption ([1]; Cycle 1, Target RH 80.0%): 0.926% | Change In Mass (%) Desorption ([1]; Cycle 1, Target RH 90.0%): 1.697% | Change In Mass (%) Hysteresis ([1]; Cycle 1, Target RH 90.0%): 0.290% | Change In Mass (%) Sorption ([1]; Cycle 1, Target RH 90.0%): 1.408% | Change In Mass (%) Desorption ([1]; Cycle 1, Target RH 95.0%): 2.031% | Change In Mass (%) Sorption ([1]; Cycle 1, Target RH 95.0%): 2.031% | Change In Mass (%) Desorption ([1]; Cycle 2, Target RH 0.0%): −0.056% | Change In Mass (%) Sorption ([1]; Cycle 2, Target RH 0.0%): −0.035% | Change In Mass (%) Desorption ([1]; Cycle 2, Target RH 10.0%): 0.198% | Change In Mass (%) Hysteresis ([1]; Cycle 2, Target RH 10.0%): 0.089% | Change In Mass (%) Sorption ([1]; Cycle 2, Target RH 10.0%): 0.109% | Change In Mass (%) Desorption ([1]; Cycle 2, Target RH 20.0%): 0.310% | Change In Mass (%) Hysteresis ([1]; Cycle 2, Target RH 20.0%): 0.084% | Change In Mass (%) Sorption ([1]; Cycle 2, Target RH 20.0%): 0.226% | Change In Mass (%) Desorption ([1]; Cycle 2, Target RH 40.0%): 0.523% | Change In Mass (%) Hysteresis ([1]; Cycle 2, Target RH 40.0%): 0.062% | Change In Mass (%) Sorption ([1]; Cycle 2, Target RH 40.0%): 0.461% | Change In Mass (%) Desorption ([1]; Cycle 2, Target RH 60.0%): 0.800% | Change In Mass (%) Hysteresis ([1]; Cycle 2, Target RH 60.0%): 0.058% | Change In Mass (%) Sorption ([1]; Cycle 2, Target RH 60.0%): 0.742% | Change In Mass (%) Desorption ([1]; Cycle 2, Target RH 80.0%): 1.299% | Change In Mass (%) Hysteresis ([1]; Cycle 2, Target RH 80.0%): 0.058% | Change In Mass (%) Sorption ([1]; Cycle 2, Target RH 80.0%): 1.241% | Change In Mass (%) Desorption ([1]; Cycle 2, Target RH 90.0%): 1.687% | Change In Mass (%) Hysteresis ([1]; Cycle 2, Target RH 90.0%): 0.071% | Change In Mass (%) Sorption ([1]; Cycle 2, Target RH 90.0%): 1.616% | Change In Mass (%) Desorption ([1]; Cycle 2, Target RH 95.0%): 1.999% | Change In Mass (%) Sorption ([1]; Cycle 2, Target RH 95.0%): 1.999% | water uptake (DVS) ([1]; at 80% RH): 1.1% | water uptake (DVS) ([1]; at 95% RH): 2.0% | hygroscopicity (absorption or adsorption of water molecules from the surrounding environment) [1]: favorable reduced absorption or adsorption of water molecules

CCC(C)O.COC(=O)[C@H](Cc1cccc(C(=N)N)c1)[C@@H](C)NC(=O)c1ccc(-c2cc[n+]([O-])cc2)cc1.COC(=O)[C@H](Cc1cccc(C(=N)N)c1)[C@@H](C)NC(=O)c1ccc(-c2cc[n+]([O-])cc2)cc1.Cl.Cl [Methyl(2R,3R)-2-{3-[amino(imino)methyl]benzyl}-3-{[4-(1-oxidopyridin-4-yl)benzoyl]amino}butanoate monohydrochloride-hemi-2-butanol-solvate]
Change In Mass (%) Desorption ([1]; Cycle 1, Target RH 0.0%): 0.35% | Change In Mass (%) Sorption ([1]; Cycle 1, Target RH 0.0%): 0.00% | Change In Mass (%) Desorption ([1]; Cycle 1, Target RH 10.0%): 3.33% | Change In Mass (%) Hysteresis ([1]; Cycle 1, Target RH 10.0%): 2.54% | Change In Mass (%) Sorption ([1]; Cycle 1, Target RH 10.0%): 0.79% | Change In Mass (%) Desorption ([1]; Cycle 1, Target RH 20.0%): 5.29% | Change In Mass (%) Hysteresis ([1]; Cycle 1, Target RH 20.0%): 4.01% | Change In Mass (%) Sorption ([1]; Cycle 1, Target RH 20.0%): 1.28% | Change In Mass (%) Desorption ([1]; Cycle 1, Target RH 40.0%): 7.14% | Change In Mass (%) Hysteresis ([1]; Cycle 1, Target RH 40.0%): 4.91% | Change In Mass (%) Sorption ([1]; Cycle 1, Target RH 40.0%): 2.22% | Change In Mass (%) Desorption ([1]; Cycle 1, Target RH 60.0%): 9.78% | Change In Mass (%) Hysteresis ([1]; Cycle 1, Target RH 60.0%): 6.09% | Change In Mass (%) Sorption ([1]; Cycle 1, Target RH 60.0%): 3.69% | Change In Mass (%) Desorption ([1]; Cycle 1, Target RH 80.0%): 16.92% | Change In Mass (%) Hysteresis ([1]; Cycle 1, Target RH 80.0%): −0.87% | Change In Mass (%) Sorption ([1]; Cycle 1, Target RH 80.0%): 17.79% | Change In Mass (%) Desorption ([1]; Cycle 1, Target RH 90.0%): 26.07% | Change In Mass (%) Hysteresis ([1]; Cycle 1, Target RH 90.0%): −0.59% | Change In Mass (%) Sorption ([1]; Cycle 1, Target RH 90.0%): 26.66% | Change In Mass (%) Desorption ([1]; Cycle 1, Target RH 95.0%): 34.13% | Change In Mass (%) Sorption ([1]; Cycle 1, Target RH 95.0%): 34.13% | Change In Mass (%) Desorption ([1]; Cycle 2, Target RH 0.0%): 0.34% | Change In Mass (%) Sorption ([1]; Cycle 2, Target RH 0.0%): 0.35% | Change In Mass (%) Desorption ([1]; Cycle 2, Target RH 10.0%): 3.17% | Change In Mass (%) Hysteresis ([1]; Cycle 2, Target RH 10.0%): 2.48% | Change In Mass (%) Sorption ([1]; Cycle 2, Target RH 10.0%): 0.69% | Change In Mass (%) Desorption ([1]; Cycle 2, Target RH 20.0%): 4.97% | Change In Mass (%) Hysteresis ([1]; Cycle 2, Target RH 20.0%): 3.65% | Change In Mass (%) Sorption ([1]; Cycle 2, Target RH 20.0%): 1.32% | Change In Mass (%) Desorption ([1]; Cycle 2, Target RH 40.0%): 6.78% | Change In Mass (%) Hysteresis ([1]; Cycle 2, Target RH 40.0%): 4.11% | Change In Mass (%) Sorption ([1]; Cycle 2, Target RH 40.0%): 2.67% | Change In Mass (%) Desorption ([1]; Cycle 2, Target RH 60.0%): 9.41% | Change In Mass (%) Hysteresis ([1]; Cycle 2, Target RH 60.0%): 4.84% | Change In Mass (%) Sorption ([1]; Cycle 2, Target RH 60.0%): 4.57% | Change In Mass (%) Desorption ([1]; Cycle 2, Target RH 80.0%): 16.37% | Change In Mass (%) Hysteresis ([1]; Cycle 2, Target RH 80.0%): 2.94% | Change In Mass (%) Sorption ([1]; Cycle 2, Target RH 80.0%): 13.43% | Change In Mass (%) Desorption ([1]; Cycle 2, Target RH 90.0%): 25.32% | Change In Mass (%) Hysteresis ([1]; Cycle 2, Target RH 90.0%): 1.41% | Change In Mass (%) Sorption ([1]; Cycle 2, Target RH 90.0%): 23.91% | Change In Mass (%) Desorption ([1]; Cycle 2, Target RH 95.0%): 32.86% | Change In Mass (%) Sorption ([1]; Cycle 2, Target RH 95.0%): 32.86% | hygroscopicity (absorption or adsorption of water molecules from the surrounding environment) [1]: hygroscopic

COC(=O)[C@H](Cc1cccc(C(=N)N)c1)[C@@H](C)NC(=O)c1ccc(-c2cc[n+]([O-])cc2)cc1 (mixture of isomers) [Otamixaban, Methyl(2R,3R)-2-{3-[amino(imino)methyl]benzyl}-3-{[4-(1-oxidopyridin-4-yl)benzoyl]amino}butanoate]
factor Xa inhibition in patients (factor Xa): dose-dependent, rapid direct factor Xa inhibition | reduction of prothrombin fragments 1+2 [2]: reduced prothrombin fragments 1+2 significantly more than unfractionated heparin | efficacy in models of thrombosis (models of thrombosis): highly efficacious | inhibition of factor Xa assembled in the prothrombinase complex [3]: inhibited | inhibition of free factor Xa (free factor Xa): inhibited | clinical efficacy (acute coronary syndrome): efficacious | clinical safety and tolerability (acute coronary syndrome): safe and well tolerated
